Where two headings read alike, the source gives them in different places.
Tests used:
[1] = system: human tumor cell lines; conditions: A. Saito, et al., 1999; cited from earlier work
[2] = system: histone deacetylases; assay: Histone acetylation in B-CLL cells by immunoblotting; assay type: cell-based, human
Experimental: FIG. 2. MS-275 induced acetylation of histone proteins. PBMCs from two different B-CLL patients (Patient No. 1 and 2) were collected and incubated with 0, 0.3, or 3.0 μM MS-275 for 24 hours. Nuclear extracts were prepared from the cells and were separated by SDS-polyacrylamide gel electrophoresis before immunoblotting with antibodies immunospecific for acetylated forms of H3 or H4 histones. Coomassie blue staining was used to control for protein amount loaded onto the SDS polyacrylamide gels.
Antibodies immunospecific for specific acetylated lysine residues at the N terminus of histone H4 (i.e., K5, K8, K12 and K16) were also used. For immunoblotting, whole cell lysates were prepared from the cells using standard procedures. Protein samples were separated along with molecular weight markers (BioRad) on 10 to 14% SDS-polyacrylamide gels. Proteins in the gels were transferred using a semidry apparatus (BioRad) onto nitrocellulose membranes (Schleicher and Schuell, Keene, N.H.). Gel loading equivalence was confirmed by Ponceau S stain (Sigma) of membranes and by probing with a monoclonal antibody for GAPDH. Blots were developed with chemiluminescent substrate (Pierce Super-Signal, Pierce Biotechnology, Rockford, Ill.) and autoradiography was performed with X-OMAT film (Kodak, Rochester, N.Y.). Protein bands were digitally quantified using a ChemiDoc instrument (BioRad).

[3] = system: cellular histone deacetylase activity; conditions: A. Saito, et al., 1999; cited from earlier work
[4] = system: caspases 8 and 9; assay: Caspase activation, caspases 8 and 9; assay type: cell-based, human; conditions: B-CLL cells treated with MS-275, other studies
Experimental: (§1) To determine the role and identity of caspases involved in MS-275-induced apoptosis, B-CLL cells, isolated as described in Example 1, were treated with MS-275 and analyzed for caspase activation by colorimetric assay. […] Cleavage of the protein BID, a known substrate of caspase 8, was also shown.

[5] = system: 1D10 antigen; assay: 1D10 antigen levels on B-CLL cells by immunofluorescence flow cytometry; assay type: cell-based, human; conditions: 3.0 μM MS-275, 24 hours
Experimental: Washed B-CLL cells, isolated as described in Example 1, from four different patients with B-CLL, were incubated at a concentration of 10^7 cells per ml in the presence or absence of 3.0 μM MS-275 for 24 hours, before being immunofluorescently stained with either non-specific antibody (unable to specifically bind to the cells) or antibody immunospecific for 1D10 antigen. All cells were also stained with an antibody immunospecific for CD19 (recognizing B cells). The cells were analyzed by flow cytometry. The mean fluorescence intensity due to 1D10 antigen staining of CD19-positive cells was recorded.

[6] = system: caspase 3; assay: Caspase activation colorimetric assay, caspase 3; assay type: cell-based, human; conditions: B-CLL cells, 0.3 or 3.0 μM MS-275, 24 hours
Experimental: as §1, with “FIG. 4. […] B-CLL patient cells were incubated with 0.3 or 3.0 μM MS-275 for 24 hours. At these time points, lysates were prepared from the cells and caspase 3 activity in the lysates was measured using a colorimetric assay. To” for “To”

[7] = system: B-CLL cells; assay: Annexin V/propidium iodide flow cytometric apoptosis assay; assay type: cell-based, human
Experimental: FIG. 3. […] B-CLL patient cells were incubated with 0, 0.3, or 3.0 μM MS-275 for 24 hours. Apoptosis was assessed by annexin V/propidium iodide flow cytometry. To determine whether MS-275-treated B-CLL cells were undergoing apoptosis, an annexin V/propidium iodide flow cytometric assay was used to analyze the B-CLL cells, isolated as described in Example 1, from four different patients. Staining of cells for annexin V is an early indicator of initiation of apoptosis. Staining of cells with propidium iodide is an indicator that cells are no longer viable and, therefore, that apoptosis has actually occurred (i.e., integrity of cell membrane has been breached). To perform the assay, cells were exposed to various concentrations of MS-275 for 4 hours. Then, the cells were washed, resuspended in complete medium and incubated for 24 or 48 hours in absence of MS-275. At these times, cells were washed with PBS and resuspended in binding buffer containing annexin V-FITC and propidium iodide (BD Pharmingen, San Diego, Calif.). After 15 minutes of incubation in the dark at room temperature, apoptosis was assessed by flow cytometry on a Coulter EPICS-XL flow cytometer. […] The results were similar in the other three patients.

[8] = in vitro; assay type: cell-based; conditions: human
From the text: Peripheral blood mononuclear cells (PBMCs) were obtained from the B-CLL patients and were also obtained from healthy volunteers as controls. Peripheral blood was collected from the patients or volunteers using standard techniques (see for example, S. Bennett and S. N. Breit, 1994, Variables in the isolation and culture of human monocytes that are of particular relevance to studies of HIV, J. Leukoc. Biol. 56:236-40). PMBCs were isolated from the blood using standard density gradient centrifugation using Ficoll-Paque Plus (Pharmacia Biotech, Picsataway N.J.). After isolation, the PBMCs were washed in phosphate-buffered saline (PBS).
(§2) In order to accurately represent the in vivo situation where drug is eliminated from the bloodstream, 1×10^6 PBMCs from B-CLL patients or healthy volunteers, isolated as described in Example 1, were incubated in various concentrations of MS-275 in RPMI 1640 with 10% heat-inactivated fetal bovine serum for 4, 24 or 96 hours at 37° C. in 96-well plates. […] Viability of the cells was then analyzed using the MTT assay. […] To use the MTT assay, MTT reagent was added and the cells were incubated for an additional 24 hours before washing and analysis of purple formazan formation by spectrophotometry in a Labsystems 96-well plate reader. Data were plotted and values were calculated using GraphPad software (San Diego, Calif.).

[9] = system: B-CLL cells; assay: cells; assay type: cell-based; conditions: Homo sapiens, read-out: LC50
Experimental: FIG. 1. LC50 determination of MS-275 in primary B-CLL cells. Peripheral blood mononuclear cells (PBMCs) from thirteen individual B-CLL patients were isolated and incubated with varying concentrations of MS-275 from 0.01 to 100 uM. A. Cells were incubated in drug for 4 hours and were then washed and re-incubated in fresh media for a total of 96 hours. B. Cells were incubated in drug for 96 hours continuously. Viability was determined by an MTT assay to detect metabolic activity. Each patient sample at each concentration was run in quadruplicate and was normalized to cells from the same patient incubated for the same time period in media alone. Error bars represent 95% confidence intervals. […]
as §2, with “Data were plotted and values were calculated using GraphPad software (San Diego, Calif.).” left out

[10] = Patient No. 1, 0.3 μM MS-275, 24 hours
[11] = Patient No. 1, 3.0 μM MS-275, 24 hours
[12] = Patient No. 2, 0.3 μM MS-275, 24 hours
[13] = Patient No. 2, 3.0 μM MS-275, 24 hours
[14] = Patient No. 1, CD19-positive B-CLL cells
[15] = Patient No. 2, CD19-positive B-CLL cells
[16] = Patient No. 3, CD19-positive B-CLL cells
[17] = Patient No. 4, CD19-positive B-CLL cells

Nc1ccccc1NC(=O)c1ccc(CNC(=O)OCc2cccnc2)cc1 [MS-275, N-(2-aminophenyl)-4-[N-(pyridin-3-yl-methoxycarbonyl)aminomethyl]benzamide]
growth in a variety of human tumor cell lines [1]: block growth
Fold Increase in Histone Acetylation (Relative to Untreated), H3 Total [2, 10]: 1.3 fold
Fold Increase in Histone Acetylation (Relative to Untreated), H4 K5 [2, 10]: 2.7 fold
Fold Increase in Histone Acetylation (Relative to Untreated), H4 K8 [2, 10]: 1.6 fold
Fold Increase in Histone Acetylation (Relative to Untreated), H4 K12 [2, 10]: 4.4 fold
Fold Increase in Histone Acetylation (Relative to Untreated), H4 K16 [2, 10]: 3.7 fold
Fold Increase in Histone Acetylation (Relative to Untreated), H4 Total [2, 10]: 2.4 fold
Fold Increase in Histone Acetylation (Relative to Untreated), H3 Total [2, 11]: 2.3 fold
Fold Increase in Histone Acetylation (Relative to Untreated), H4 K5 [2, 11]: 8.9 fold
Fold Increase in Histone Acetylation (Relative to Untreated), H4 K8 [2, 11]: 1.9 fold
Fold Increase in Histone Acetylation (Relative to Untreated), H4 K12 [2, 11]: 15.8 fold
Fold Increase in Histone Acetylation (Relative to Untreated), H4 K16 [2, 11]: 9.1 fold
Fold Increase in Histone Acetylation (Relative to Untreated), H4 Total [2, 11]: 3.9 fold
Fold Increase in Histone Acetylation (Relative to Untreated), H3 Total [2, 12]: 1.5 fold
Fold Increase in Histone Acetylation (Relative to Untreated), H4 K5 [2, 12]: 2.6 fold
Fold Increase in Histone Acetylation (Relative to Untreated), H4 K8 [2, 12]: 4.4 fold
Fold Increase in Histone Acetylation (Relative to Untreated), H4 K12 [2, 12]: 5.1 fold
Fold Increase in Histone Acetylation (Relative to Untreated), H4 K16 [2, 12]: 3.1 fold
Fold Increase in Histone Acetylation (Relative to Untreated), H4 Total [2, 12]: 3.8 fold
Fold Increase in Histone Acetylation (Relative to Untreated), H3 Total [2, 13]: 3.1 fold
Fold Increase in Histone Acetylation (Relative to Untreated), H4 K5 [2, 13]: 4.5 fold
Fold Increase in Histone Acetylation (Relative to Untreated), H4 K8 [2, 13]: 4.8 fold
Fold Increase in Histone Acetylation (Relative to Untreated), H4 K12 [2, 13]: 10.3 fold
Fold Increase in Histone Acetylation (Relative to Untreated), H4 K16 [2, 13]: 4.7 fold
Fold Increase in Histone Acetylation (Relative to Untreated), H4 Total [2, 13]: 5.2 fold
inhibition of cellular histone deacetylase activity [3]: inhibit cellular histone deacetylase activity
caspases 8 and 9 activation [4]: activated to a lesser extent than caspase 3
mean 1D10 fluorescence normalized to the staining control [5, 14]: 88
mean 1D10 fluorescence of the cells [5, 14]: 104.11
mean 1D10 fluorescence normalized to the staining control [5, 15]: 393
mean 1D10 fluorescence of the cells [5, 15]: 463.23
mean 1D10 fluorescence normalized to the staining control [5, 16]: 3252
mean 1D10 fluorescence of the cells [5, 16]: 6438.03
mean 1D10 fluorescence normalized to the staining control [5, 17]: 4158
mean 1D10 fluorescence of the cells [5, 17]: 5446.76
caspase 3 activation [6]: induced activation of caspase 3
apoptosis (annexin V/propidium iodide flow cytometry) ([7]; 0.3 μM of MS-275, after 48 hours): apoptosis was detected after 48 hours
apoptosis (annexin V/propidium iodide flow cytometry) ([7]; 3.0 μM of MS-275, within 24 hours, one representative patient): apoptosis was detected within 24 hours
effect of Bcl-2 expression on MS-275-induced apoptosis ([7]; expression of the anti-apoptotic protein Bcl-2, other studies): inhibited by expression of the anti-apoptotic protein Bcl-2
CC50 at 4 h [8]: ≥ 21.1 µM
CC50 at 96 h [8]: ≥ 4.75 µM
CC50 ([9]; 96 h): 0.509 µM
CC50 [9]: 1.21 µM

— patent US6841565B1, “Treatment of patients with chronic lymphocytic leukemia” (The Ohio State University, priority 2002, dated 2005)
